row,Structure (SMILES),melting point [°C]
1,O=C(O)CC[C@@H](C(=O)OCc1ccccc1)n1c2ccccc2c2ccccc21,100
2,CCCCCCCCCCOCC(O)CO (stereo unspecified),38.5 to 39
3,O=c1c(-c2ccccc2)ccc2n1CCc1ccsc1-2,133 to 134
4,O=C(O)Cn1c(-c2ccc(Cl)cc2)nc2ccc(Cl)nc21,> 250
5,O=C(NCCO)c1cccc(-c2ccc3cnn(-c4ccc(Cl)cc4Cl)c3c2)c1,191 to 192
6,CC(C)(C)[N+]([O-])=Cc1ccccc1OCc1ccccc1,111
7,O=c1[nH][nH]c(=O)c2c(O)c3cc(Cl)ccc3nc12,228 to 230
8,CNC(=O)ON=C1COCCS1,105 to 106
9,OCc1cc(Cl)c(F)c(Cl)c1F,55
10,CC(C(=O)NCCO)c1ccc(C(=O)c2cccs2)cc1 (stereo unspecified),87.1
11,CC(=O)c1ccc(NS(=O)(=O)c2ccc3c(c2)-c2c(nc(C)[nH]c2=O)CC3)cc1,> 240
12,COc1c(C#N)cc([N+](=O)[O-])cc1C#N,144 to 148
13,C(=C\c1nc2ccccc2n1-c1ccncc1)/c1ccccc1,168 to 169
14,Cc1ccc(CCc2ccccc2Br)c(N)c1,67 to 69
15,CC(C)c1nc(C(C)C)c(CSc2ccc(O)cc2)c(-c2ccc(F)cc2)c1CO,178 to 179
16,FC(F)c1cc(Cl)nc2c1c(I)nn2C1CCCCO1 (stereo unspecified),157
17,CNC(=O)c1ccccc1Nc1nc(Nc2c(OC)ccc3c2CCOC(=O)N3C)ncc1Cl,160
18,COc1ccc(C=O)c(O)c1O,116 to 117
19,Cc1cc(O)cc(C)c1-c1cccc2c1Oc1ccccc1S2,116
20,Cc1cccc(OCC(=S)NCCN2CCCC2)c1C,62 to 64
21,C[C@@H](Cn1ncc2ccc3c(c21)C[C@@H](OCC(N)=O)CO3)N=[N+]=[N-],94 to 97
22,COc1ccc(S(=O)(=O)N2CCc3cccc(-c4cc(OC)c(OC)c(OC)c4)c32)cc1,202 to 205
23,CO[C@H](C)C(=O)N[C@H]1CC[C@H](CCN2CCN(c3nccc4c3CCO4)CC2)CC1,159
24,CC(C)c1ccc(O[C@@H](Cc2ccc(O)cc2)C(=O)N2C(=O)OC[C@@H]2Cc2ccccc2)cc1,142 to 143
25,O=c1oc(-c2cccc(F)c2)nc2cccc(Cl)c12,120 to 123
26,CCCNC(=O)C1Cc2c([nH]c3ccccc23)C(c2ccc3c(c2)OCO3)N1C(C)=O (stereo unspecified),163 to 165

row,Structure (SMILES),melting point [°C]
1,CCC(C(C)=CC(CNC(=O)c1cc(C)n[nH]1)=NO)[N+](=O)[O-] (stereo unspecified),188 to 189
2,C=CC1(C=C)OC(C(=O)O)Oc2ccc(Cl)cc21 (stereo unspecified),144
3,CCOCn1c(-c2sc(Cl)c(Cl)c2Cl)c(C#N)c(Br)c1C(F)(F)F,85 to 87
4,C(=Cc1ccc(-c2cnc(CSCCOc3ccccc3)o2)cc1)CN1CCCC1,73 to 75
5,COc1ccc(Cn2c(=O)c3ccc([N+](=O)[O-])cc3n(CCCCBr)c2=O)cc1,122 to 123
6,COC(=O)COc1cccnc1Br,63 to 64
7,O=C1c2cccc3c4c(cc(c23)C(=O)N1O)COCO4,314 to 315
8,CC(=O)c1ccc(OCCCN2CCC(c3noc4cc(F)ccc34)CC2)c(N(C)C)c1,94 to 96
9,Cc1nc2ccccc2c(=O)n1CCCOS(C)(=O)=O,148 to 150
10,CC1(C(=O)NC(CCC(=O)O)Cc2ccccc2)Cc2c([nH]c3ccccc23)CN1C(=O)OC1C2CC3CC(C2)CC1C3 (stereo unspecified),133 to 138
11,COC(=O)[C@H](Cc1ccc(N)cc1)NC(C)=O,141
12,CC(C)(C)c1ccc(C(=O)Nc2cn3cc(CO)ccc3n2)cc1,249 to 250
13,CCCn1c(=O)c2[nH]c(/C=C/c3ccc(OC)c(Br)c3)nc2n(CCC)c1=O,280 to 281
14,Cc1ccc2c(c1)-n1ccc3c1=C(CCC=3)c1nccn1-2,175
15,CCCn1cc(C(=O)NCc2ccc(Cl)cc2)c(=O)c2cc(CCl)sc21,186 to 188
16,CCNC(=O)Nc1nc2cc(-c3cccnc3)cc(N3CCC(O)C3)n2n1 (stereo unspecified),296 to 298
17,Cc1ccc([N+](=O)[O-])cc1C=Cc1ccccc1,65.5
18,CCCc1ccc(-c2ccc3c(c2)C=C(C(=O)OC)CCS3(=O)=O)cc1,155 to 156
19,CC1(C)Oc2ccc(OCCCC(F)(F)F)cc2[C@H](NS(C)(=O)=O)[C@H]1O,186
20,CCC1CCC(c2ccc(-c3cc(F)c(C(F)(F)Oc4cc(F)c(C(F)(F)F)c(F)c4)c(F)c3)c(F)c2)OC1 (stereo unspecified),90
21,Cc1cc(=O)[nH]c2c1C(=O)CCC2,96 to 97
22,Cc1cccc2[nH]c(=O)n(CCCN3CC=C(c4cccc(C(F)(F)F)c4)CC3)c(=O)c12,158 to 160
23,CCCOc1ccc(CO)cc1-c1nc2c(CCC)nn(C)c2c(=O)[nH]1,174 to 175
24,CCCCc1nc2c(N)nc3ccccc3c2n1CCCCSc1ccc(F)cc1F,122 to 126
25,CCCCn1c(N)nc2ccc(C3CCc4cncn43)cc21 (stereo unspecified),196
26,CSc1sc(-c2cncs2)c2c1C(=O)CC(C)(C)C2,138 to 140

row,Structure (SMILES),melting point [°C]
1,c1cc2ccc3occc3c2[nH]1,141 to 144
2,CCCCc1nc2ncncc2n1Cc1ccc2oc(-c3ccccc3-c3nnn[nH]3)c(Br)c2c1,211 to 213
3,CC(C)CCCC(C)C1CCC2C3=C(CCC21C)C1(C)CCC(O)CC1CC3=O (stereo unspecified),115 to 117
4,c1ccc(C2=NN=C(c3ccccc3)NN2)cc1,177 to 178
5,O=C(NCc1ccc(F)cc1)N1CCC(Oc2ccc(CCNC[C@H](O)COc3ccc(O)cc3)cc2)CC1,126 to 128
6,CN1C(=O)CN=C(c2ccccc2F)c2cc(NC(=O)NCc3ccccc3)ccc21,174 to 178
7,COCC(C)(C)NC(=O)C(OC)Oc1ccc2ccc(Br)cc2c1 (stereo unspecified),65 to 67
8,O=C(Nc1ccc(CP(=O)(O)O)cc1)C1=Cc2cc(C3CCCCC3)ccc2CC1,203 to 205
9,CCOC(=O)c1ccc(NC(=O)c2ccc3c(c2)C(C)(C)CC(=O)N3C)cc1,175 to 177
10,Cc1c(C(=O)Nc2ccc(N3CCN(CCO)CC3)c(C#N)c2)cnn1-c1ccc(Cl)c(Cl)c1,195 to 197
11,COc1ccc(Cl)cc1C(=O)NC1Cc2ccc(S(=O)(=O)NC(=O)NCC3CCCC3)cc2C1 (stereo unspecified),194 to 196
12,Fc1ccc2[nH]cc(CCCCN3CCN(c4cccc(Cl)c4Cl)CC3)c2c1,147 to 148
13,O=C(C1CO1)C(Cl)(Cl)Cl (stereo unspecified),92 to 95
14,CNC(=O)C(C)Oc1cc(Oc2nn(C)c(C(F)(F)F)c2Cl)ccc1[N+](=O)[O-] (stereo unspecified),140 to 142
15,CCCn1nc2c(N)nc3ccccc3c2c1CC(C)(C)OCCS(C)(=O)=O,197 to 200
16,Cc1cc(Br)c(C)cc1N,92 to 93
17,CCOc1ccc(Nc2n[nH]c3ncnc(Nc4cccc(Cl)c4)c23)cc1,232 to 233
18,CC(=O)NC[C@H]1CN(c2ccc(N3CCC(N)(C#N)CC3)c(F)c2)C(=O)O1,94 to 96
19,CCc1nc(-c2ccc(OCCC3CCN(c4ccc(C)nn4)CC3)cc2)co1,124
20,COc1cc(CNC(=O)c2nc3ccc(F)c(OCCc4ccc(-c5c(O)noc5C)cc4)c3c(=O)[nH]2)ccc1F,240 to 242
21,CS(=O)(=O)c1ccc(-c2cc(=O)n(C3CCCC3)nc2-c2ccc(F)cc2)cc1,191 to 192
22,COc1ccc(N2CCc3c(C)nc4ccccc4c32)c(C)c1,115 to 117
23,C=C(C)c1cnn(-c2ccnc3cc(Cl)ccc23)c1,85.5 to 88
24,Cn1nnc2c3nc(O)c(O)nc3ccc21,> 300
25,CCC(=C(c1ccc(O)cc1)c1ccc(OCCN(C)C)cc1)c1ccccc1,114 to 117
26,CCCCCCCCCCCCCCCCCCNC(=O)c1ccc(OC(C)=O)cc1,106

row,Structure (SMILES),melting point [°C]
1,CC(=O)Nc1cc(-c2ccncc2)cc2nc(-c3ccc(C)o3)nn12,257 to 259
2,Cc1cccc2[nH]c(Cl)nc12,138 to 140
3,O=C(O)c1cccc(-c2nn(Cc3ccccc3)c3ccccc23)c1,190 to 192
4,CC(=O)Oc1ccc(C(=O)Oc2ccc(OC(=O)c3ccc(OC(C)=O)cc3)cc2)cc1,185 to 186
5,CC(C)(Oc1ccc(Cl)cc1)C(=O)C(Oc1cccc(Cl)n1)n1cncn1 (stereo unspecified),100
6,CN(C)C=NC(=Nc1ccccc1)N1CCOCC1,109 to 112
7,CC#CCOc1ccc(S(=O)(=O)C(C(=O)OCC)C2CCN(C(=O)c3ccccc3)CC2)cc1 (stereo unspecified),120
8,Cc1csc2nc(C(=O)O)cn12,196 to 197
9,Cc1noc(C)c1Cn1cc(N2C(=O)CN(CCc3ccccc3)C2=O)cn1,95 to 96
10,CCc1cc(-n2ccc(=O)cc2)c(S(C)(=O)=O)cc1C(=O)N=C(N)N,261 to 263
11,COc1ccc(C(=O)NCCOc2cccc3c2OCCO3)c(OC)c1OC,128
12,Cc1ccccc1OCc1ccccc1N,56
13,O=C(C=Cc1ccc(C(F)(F)F)cc1)N1CCC(O)CC1,124 to 135
14,NC(=S)NC[C@H]1CN(c2ccc(-n3cncn3)cc2)C(=O)O1,214 to 215
15,COc1cc(C(C)C)c(NC(=O)CN2CCN(CCSc3nc4cccc(C(F)(F)F)c4o3)CC2)c(C(C)C)c1,122 to 123
16,O=S(=O)(Nc1ccc2c(OCc3ccc(I)cc3)cccc2c1)C(F)(F)F,120 to 122
17,CCOC(=O)C(=CC=C(SC)C(=O)c1ccc(Br)cc1)N(C)C,107
18,CCn1c(N)c(C(=O)NC)c(=O)c2ccc(-c3ccc(NS(=O)(=O)c4cccc(Cl)c4Cl)cc3)nc21,210
19,"CCC(=O)OC(C)c1ccc(-c2ccc(O)cc2)cc1 (single isomer, unassigned; (+))",133 to 135
20,Cc1cc(SC2=C(O)C[C@@](CCc3ccc(O)cc3)(C(C)C)OC2=O)c(C(C)C)c2sc(N)nc12,232 to 234
21,CCOC(=O)c1c(NCCCN(C)C)c2ccc(C)nc2n(CC)c1=O,75
22,CCCCCCCCCOc1ccc(F)c(C(N)=O)c1Cl,64 to 66
23,NCCN1C(=O)c2ccccc2C1(O)c1ccccc1Cl (stereo unspecified),172 to 174

# Reference: a melting point compilation (Tetko et al.; mined from patent text by program, amines drawn as free bases though some values may be those of a salt)
